Laboratory results: ChEMBL document CHEMBL1201862, “PubChem BioAssay data set” (2004)
Calls of active or inactive are those of the source.

Legend:
[1] = target: Dual specificity protein kinase CLK1 (Homo sapiens, UniProt P49759); assay: CLK1 kinase inhibitors, off-target check, dose response, selectivity assay for Dyrk1A inhibitor project, biochemical, cherry-picked samples (AID 588811)
[2] = target: Cyclin-dependent kinase 2 (Homo sapiens, UniProt P24941); assay: CDK2 kinase inhibitors, off-target check, dose response, selectivity assay for Dyrk1A inhibitor project, biochemical, cherry-picked samples (AID 602127)
INS1 [3] = assay: protection of INS-1E cells from cytokine death, dose response, ATP luminescence, dry powder (AID 488844); type: functional, cell-based; conditions: Rattus norvegicus
INS1 [4] = assay: protection from cytokine-induced mitochondrial depolarization, dose response, cell-based, INS-1E, JC-1 fluorescence ratio, dry powder (AID 488931); type: functional; conditions: Rattus norvegicus
[5] = target: Induced myeloid leukemia cell differentiation protein Mcl-1 (Homo sapiens, UniProt Q07820); type: functional
[6] = target: 72 kDa type IV collagenase (Homo sapiens, UniProt P08253); assay: Dose Response validation of uHTS RPN11 inhibitor hits using a MMP-2 Fluorescence assay.; type: functional
[7] = target: 26S proteasome non-ATPase regulatory subunit 14 (Homo sapiens, UniProt O00487); assay: inhibition of proteasome subunit RPN11 – biochemical, fluorescence polarization, uHTS hits, confirmation (AID 602368); type: functional
Streptococcus = assay: Group A Streptococcus viability loss, dose response, counter-screen for streptokinase expression inhibitor project, luminescence, BacTiterGlo (AID 1915); type: functional, organism-based;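 also: potency for reduction of bacterial viability or growth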
[8] = system: Streptococcus sp. 'group A'; assay: growth inhibition of control SK(-) GAS strain, dose response, counter-screen for streptokinase expression inhibitor project, luminescence, kanamycin, BacTiterGlo, confirmation (AID 1900); type: functional, organism-based
[9] = target: T1, Apoptotic protease-activating factor 1 (Homo sapiens, UniProt O14727); assay: activation of Apaf-1 mediated apoptosis – fluorescent, uHTS hits, dose response (AID 588554); type: functional
T1 sequence (O14727 whole entry): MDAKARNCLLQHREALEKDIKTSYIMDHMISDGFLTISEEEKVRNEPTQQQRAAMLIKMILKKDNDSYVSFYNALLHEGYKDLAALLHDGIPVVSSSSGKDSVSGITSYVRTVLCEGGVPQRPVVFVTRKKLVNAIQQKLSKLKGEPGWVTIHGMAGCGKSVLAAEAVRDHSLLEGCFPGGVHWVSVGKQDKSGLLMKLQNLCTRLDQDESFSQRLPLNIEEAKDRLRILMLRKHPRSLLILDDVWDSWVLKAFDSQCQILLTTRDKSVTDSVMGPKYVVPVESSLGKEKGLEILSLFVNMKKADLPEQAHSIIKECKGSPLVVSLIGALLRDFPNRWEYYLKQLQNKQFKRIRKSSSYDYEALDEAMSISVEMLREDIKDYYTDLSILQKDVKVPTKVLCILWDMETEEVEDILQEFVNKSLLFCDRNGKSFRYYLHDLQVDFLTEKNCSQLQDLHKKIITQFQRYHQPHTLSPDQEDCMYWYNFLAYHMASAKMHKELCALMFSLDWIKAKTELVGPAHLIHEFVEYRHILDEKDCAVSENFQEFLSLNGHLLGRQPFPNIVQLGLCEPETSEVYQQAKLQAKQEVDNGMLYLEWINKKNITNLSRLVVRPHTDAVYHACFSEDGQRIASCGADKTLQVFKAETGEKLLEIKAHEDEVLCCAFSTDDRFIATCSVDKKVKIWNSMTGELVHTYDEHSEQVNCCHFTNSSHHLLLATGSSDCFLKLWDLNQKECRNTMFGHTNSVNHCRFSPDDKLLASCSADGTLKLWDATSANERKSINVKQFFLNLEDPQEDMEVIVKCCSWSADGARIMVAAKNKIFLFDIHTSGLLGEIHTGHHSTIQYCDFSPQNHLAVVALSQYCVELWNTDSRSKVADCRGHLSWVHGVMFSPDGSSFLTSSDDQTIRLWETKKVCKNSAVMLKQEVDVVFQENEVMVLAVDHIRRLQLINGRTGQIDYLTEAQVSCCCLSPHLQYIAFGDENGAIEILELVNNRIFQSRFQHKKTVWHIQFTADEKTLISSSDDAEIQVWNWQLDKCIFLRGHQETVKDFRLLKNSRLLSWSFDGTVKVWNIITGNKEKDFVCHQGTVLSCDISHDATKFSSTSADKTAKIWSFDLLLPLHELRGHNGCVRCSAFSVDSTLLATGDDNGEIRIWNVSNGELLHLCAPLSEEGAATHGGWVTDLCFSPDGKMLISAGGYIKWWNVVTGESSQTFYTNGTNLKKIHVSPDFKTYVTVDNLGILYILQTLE

Prothrombin = Prothrombin (Bos taurus, UniProt P00735); assay: thrombin inhibition, dose response, biochemical, fluorescence polarization, uHTS hits (AID 602369); type: functional
[10] = target: Dual specificity protein phosphatase 3 (Homo sapiens, UniProt P51452); assay: SAR VHR1 Fluorescent Assay for In Vitro dose response studies Set 3. [Related pubchem assays (depositor defined):AID1654, AID1661, AID1878]; type: functional
[11] = target: Beta-adrenergic receptor kinase 1 (Homo sapiens, UniProt P25098); assay: GRK2 inhibitors displacing RNA aptamer, dose response, biochemical, flow cytometry beads, FAM-aptamer, powder set 1 (AID 588720)
[12] = target: Luciferin 4-monooxygenase (Photuris pensylvanica, UniProt Q27757); assay: firefly luciferase enzyme inhibitors, dose response, counter-screen for HSF-1 reporter inhibitor project, biochemical, Cell Titer Glo, luminescence, cherry-picks (AID 588847)
[13] = target: Heat shock protein HSP 90-alpha (Homo sapiens, UniProt P07900); assay: Luminescence-based dose response biochemical high throughput screening assay for inhibitors of the Heat Shock Protein 90 (HSP90). [Related pubchem assays: 1831 (Summary AID.), 1846 (Confirmation screen.), 1789 (Primary screen.)]

Sequence of 72 kDa type IV collagenase (P08253 whole entry): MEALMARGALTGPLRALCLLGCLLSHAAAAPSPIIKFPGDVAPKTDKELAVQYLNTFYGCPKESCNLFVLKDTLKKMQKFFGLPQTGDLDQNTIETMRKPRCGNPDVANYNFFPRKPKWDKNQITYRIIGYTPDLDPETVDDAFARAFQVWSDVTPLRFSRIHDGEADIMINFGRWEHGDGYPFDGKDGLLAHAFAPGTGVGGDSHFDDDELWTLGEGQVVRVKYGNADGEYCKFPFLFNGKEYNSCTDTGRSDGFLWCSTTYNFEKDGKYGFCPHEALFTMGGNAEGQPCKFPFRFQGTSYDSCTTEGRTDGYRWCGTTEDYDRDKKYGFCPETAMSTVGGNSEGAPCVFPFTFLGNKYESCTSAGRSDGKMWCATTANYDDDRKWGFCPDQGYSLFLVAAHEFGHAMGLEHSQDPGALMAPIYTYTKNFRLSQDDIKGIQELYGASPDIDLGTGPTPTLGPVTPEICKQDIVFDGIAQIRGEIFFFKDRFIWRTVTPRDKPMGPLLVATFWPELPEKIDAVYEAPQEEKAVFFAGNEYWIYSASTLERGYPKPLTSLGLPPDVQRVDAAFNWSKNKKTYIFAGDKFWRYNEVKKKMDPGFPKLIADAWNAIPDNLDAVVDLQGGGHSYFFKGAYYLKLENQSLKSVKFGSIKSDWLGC
Sequence of Beta-adrenergic receptor kinase 1 (P25098 whole entry): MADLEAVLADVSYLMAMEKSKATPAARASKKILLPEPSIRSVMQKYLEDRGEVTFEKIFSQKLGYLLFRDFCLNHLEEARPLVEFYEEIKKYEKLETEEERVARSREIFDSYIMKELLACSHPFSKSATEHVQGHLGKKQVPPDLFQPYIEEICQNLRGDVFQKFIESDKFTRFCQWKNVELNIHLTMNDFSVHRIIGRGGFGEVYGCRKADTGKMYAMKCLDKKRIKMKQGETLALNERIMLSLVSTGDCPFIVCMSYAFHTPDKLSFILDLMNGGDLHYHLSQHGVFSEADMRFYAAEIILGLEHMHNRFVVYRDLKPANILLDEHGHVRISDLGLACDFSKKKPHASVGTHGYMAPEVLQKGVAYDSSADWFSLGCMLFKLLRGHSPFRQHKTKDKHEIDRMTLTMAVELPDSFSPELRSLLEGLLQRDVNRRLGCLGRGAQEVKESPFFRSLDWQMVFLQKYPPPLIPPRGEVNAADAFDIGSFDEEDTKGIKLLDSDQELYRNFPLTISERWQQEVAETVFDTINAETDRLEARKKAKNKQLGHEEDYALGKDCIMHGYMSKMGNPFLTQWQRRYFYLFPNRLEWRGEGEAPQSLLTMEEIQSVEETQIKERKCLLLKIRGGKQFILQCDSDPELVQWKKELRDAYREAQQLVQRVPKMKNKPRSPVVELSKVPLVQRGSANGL
Sequence of Dual specificity protein kinase CLK1 (P49759 whole entry): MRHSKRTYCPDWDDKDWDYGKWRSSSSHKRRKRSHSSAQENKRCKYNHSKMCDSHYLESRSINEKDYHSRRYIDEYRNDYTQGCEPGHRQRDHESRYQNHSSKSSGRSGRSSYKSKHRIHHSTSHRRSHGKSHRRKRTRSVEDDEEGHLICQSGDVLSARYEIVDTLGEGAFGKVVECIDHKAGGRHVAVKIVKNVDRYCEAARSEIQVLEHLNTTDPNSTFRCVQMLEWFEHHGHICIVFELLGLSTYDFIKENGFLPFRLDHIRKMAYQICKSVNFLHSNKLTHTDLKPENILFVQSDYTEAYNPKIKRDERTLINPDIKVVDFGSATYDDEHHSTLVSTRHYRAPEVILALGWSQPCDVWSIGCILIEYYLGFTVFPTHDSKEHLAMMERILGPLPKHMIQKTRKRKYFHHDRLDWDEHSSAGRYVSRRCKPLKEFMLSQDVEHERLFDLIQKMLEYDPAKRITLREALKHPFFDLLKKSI
Sequence of Induced myeloid leukemia cell differentiation protein Mcl-1 (Q07820 whole entry): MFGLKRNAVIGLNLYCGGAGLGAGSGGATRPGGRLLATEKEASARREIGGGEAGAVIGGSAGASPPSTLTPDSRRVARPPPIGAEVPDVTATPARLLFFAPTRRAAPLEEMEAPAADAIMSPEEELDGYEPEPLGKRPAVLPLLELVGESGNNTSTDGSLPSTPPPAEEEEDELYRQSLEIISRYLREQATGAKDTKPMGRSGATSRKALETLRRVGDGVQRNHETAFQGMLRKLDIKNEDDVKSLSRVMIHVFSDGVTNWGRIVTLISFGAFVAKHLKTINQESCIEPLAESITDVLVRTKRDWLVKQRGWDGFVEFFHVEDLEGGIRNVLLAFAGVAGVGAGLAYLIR
Sequence of Dual specificity protein phosphatase 3 (P51452 whole entry): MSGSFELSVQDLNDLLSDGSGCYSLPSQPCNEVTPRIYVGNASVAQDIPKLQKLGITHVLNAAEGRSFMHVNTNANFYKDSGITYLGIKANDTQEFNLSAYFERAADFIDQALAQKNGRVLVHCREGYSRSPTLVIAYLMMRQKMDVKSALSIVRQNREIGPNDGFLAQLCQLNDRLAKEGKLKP
Sequence of Luciferin 4-monooxygenase (Q27757 whole entry): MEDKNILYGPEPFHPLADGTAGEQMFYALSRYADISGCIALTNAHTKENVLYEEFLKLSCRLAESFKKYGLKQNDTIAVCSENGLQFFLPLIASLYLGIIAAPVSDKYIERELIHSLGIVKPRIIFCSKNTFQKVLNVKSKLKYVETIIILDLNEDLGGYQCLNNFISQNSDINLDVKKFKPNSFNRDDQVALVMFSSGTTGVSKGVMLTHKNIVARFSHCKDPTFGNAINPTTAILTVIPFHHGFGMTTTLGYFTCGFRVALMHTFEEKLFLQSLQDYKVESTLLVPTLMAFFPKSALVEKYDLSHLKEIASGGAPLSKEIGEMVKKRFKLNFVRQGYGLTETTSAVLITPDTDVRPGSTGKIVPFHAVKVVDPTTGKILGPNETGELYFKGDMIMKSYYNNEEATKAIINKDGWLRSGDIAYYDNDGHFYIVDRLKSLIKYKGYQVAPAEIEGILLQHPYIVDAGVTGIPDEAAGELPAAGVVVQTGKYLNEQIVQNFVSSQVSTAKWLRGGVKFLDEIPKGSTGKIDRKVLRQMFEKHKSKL
Sequence of 26S proteasome non-ATPase regulatory subunit 14 (O00487 whole entry): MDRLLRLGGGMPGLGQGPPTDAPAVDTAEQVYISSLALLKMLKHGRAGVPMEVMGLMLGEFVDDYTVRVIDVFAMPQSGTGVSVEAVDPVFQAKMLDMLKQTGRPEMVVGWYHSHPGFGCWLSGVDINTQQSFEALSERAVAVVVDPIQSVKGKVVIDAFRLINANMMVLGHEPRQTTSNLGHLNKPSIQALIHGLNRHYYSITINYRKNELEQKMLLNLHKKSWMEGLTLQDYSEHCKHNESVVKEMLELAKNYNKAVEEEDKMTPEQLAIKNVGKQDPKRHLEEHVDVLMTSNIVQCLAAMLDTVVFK

c1cncc(CNc2nccc(-c3ccc4c(c3)OCO4)n2)c1
AC50 [1]: 0.00791 µM (active) | AC50 [2]: 14.3 µM (active)

COc1ccc(S(=O)(=O)N(C)C[C@@H]2Oc3c(NC(=O)Nc4cccc5ccccc45)cccc3C(=O)N([C@@H](C)CO)C[C@@H]2C)cc1
AC50 (INS1 [3]): 37.6 µM (active) | AC50 (INS1 [4]): 48 µM (active)

O=C(O)CCCN1C(=O)/C(=C\c2ccc(-c3nc4ccccc4s3)o2)SC1=S
IC50 [5]: 1.38 µM (active) | IC50 [6]: > 100 µM (inactive) | IC50 [7]: 5.31 µM (active) | EC50 (Streptococcus): 7.32 µM (active) | EC50 [8]: 3.67 µM (active) | EC50 [9]: 5.12 µM (active) | IC50 (Prothrombin): 70.3 µM (active)

COc1cccc2sc(NC(=O)c3ccc(C#N)cc3)nc12
IC50 [10]: 57.6 µM (active)

Cc1ccccc1NC(=O)CCS(=O)(=O)c1ccc(Br)cc1
EC50 [11]: 11.4 µM (active)

CC(C)Sc1nc(SCC(=O)NCc2ccco2)c2c3c(sc2n1)COC(C)(C)C3
AC50 [12]: > 52 µM (inactive) | IC50 [13]: 8.37 µM (active)
